The record followed here is ChEMBL document CHEMBL5712075, “The histone methyltransferase EZH2 as a novel prosurvival factor in clinically aggressive chronic lymphocytic leukemia” (Oncotarget, 2016).

The target of experiment [1] is Histone-lysine N-methyltransferase EZH2 (Homo sapiens) (UniProt Q15910). The experiment is described as follows: Inhibition of EZH2 in human CD19+ B cells assessed as decrease in H3K27me3 levels measured as percentage abundance at 4 uM by Western blot analysis relative to control. It counts as cell-based. Set-up: scale not given: the % may be the effect or the level left. The following applies: CD19 positive B cell. In general terms: Immunoblotting shows a protein as a band on a membrane.

Experiment [2] shares this target. The experiment is described as follows: Inhibition of EZH2 in human CD19+ B cells assessed as decrease in H3K27me3 levels measured as percentage abundance at 4 uM after 2 days by Western blot analysis relative to control. Type of experiment: cell-based. Further details: scale not given: the % may be the effect or the level left. The following applies: CD19 positive B cell, time 2.0 day.

Experiment [3] has the same target. Put plainly: Inhibition of EZH2 in human CD19+ B cells assessed as decrease in H3K27me3 levels measured as percentage abundance at 4 uM after 4 days by Western blot analysis relative to control. It counts as cell-based. Set-up: scale not given: the % may be the effect or the level left. The following applies: CD19 positive B cell, time 4.0 day.
The target is the same in experiment [4]. Put plainly: Inhibition of EZH2 in human CD19+ B cells assessed as decrease in H3K27me3 levels measured as percentage abundance at 4 uM after 6 days by Western blot analysis relative to control. Type of experiment: cell-based. Further details: scale not given: the % may be the effect or the level left. The following applies: CD19 positive B cell, time 6.0 day.

The target is the same in experiment [5]. The experiment is described as follows: Inhibition of EZH2 in human CD19+ B cells assessed as decrease in H3K27me3 levels measured as percentage abundance at 4 uM after 8 days by Western blot analysis relative to control. Type of experiment: cell-based. Set-up: scale not given: the % may be the effect or the level left. The following applies: CD19 positive B cell, time 8.0 day.

For experiment [6] the target is unchanged. The experiment is described as follows: Inhibition of EZH2 in human CD19+ B cells assessed as decrease in H3K27me3 levels measured as percentage abundance at 4 uM after 10 days by Western blot analysis relative to control. The settings on record: CD19 positive B cell, time 10.0 day. Type of experiment: cell-based. Set-up: scale not given: the % may be the effect or the level left.

Experiment [7] shares this target. The experiment is described as follows: Inhibition of EZH2 in human CD19+ B cells assessed as decrease in cell viability at 4 uM after 5 to 13 days by annexin-V/PI staining based flow cytometry. The settings on record: CD19 positive B cell, time 5-13 day, TDE = time-dependent effect. (A flow cytometer gives signals particle by particle.)

Sequence of Histone-lysine N-methyltransferase EZH2 (Homo sapiens) (Q15910 whole entry, looked up): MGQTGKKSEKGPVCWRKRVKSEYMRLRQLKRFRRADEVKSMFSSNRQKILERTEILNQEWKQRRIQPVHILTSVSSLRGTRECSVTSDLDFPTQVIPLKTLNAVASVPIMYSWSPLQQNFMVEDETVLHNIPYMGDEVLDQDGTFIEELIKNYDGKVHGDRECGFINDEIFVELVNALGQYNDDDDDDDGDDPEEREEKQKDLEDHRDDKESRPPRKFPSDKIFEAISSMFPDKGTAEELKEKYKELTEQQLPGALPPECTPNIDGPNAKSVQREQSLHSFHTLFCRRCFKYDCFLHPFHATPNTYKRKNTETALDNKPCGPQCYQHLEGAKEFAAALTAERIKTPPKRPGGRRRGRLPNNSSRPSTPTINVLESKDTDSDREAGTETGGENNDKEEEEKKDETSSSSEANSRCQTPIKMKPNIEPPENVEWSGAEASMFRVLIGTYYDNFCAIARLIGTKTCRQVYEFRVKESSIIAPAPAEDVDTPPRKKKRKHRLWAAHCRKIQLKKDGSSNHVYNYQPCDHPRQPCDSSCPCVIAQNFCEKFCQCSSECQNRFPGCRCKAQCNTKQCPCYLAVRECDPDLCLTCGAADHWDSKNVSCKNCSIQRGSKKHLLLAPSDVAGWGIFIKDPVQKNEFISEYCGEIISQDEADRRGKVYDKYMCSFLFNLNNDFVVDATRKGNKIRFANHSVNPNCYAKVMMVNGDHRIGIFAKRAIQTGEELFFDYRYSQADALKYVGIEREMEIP

Turning to `CCCc1cc(C)[nH]c(=O)c1CNC(=O)c1cc(-c2ccnc(N3CCN(C)CC3)c2)cc2c1cnn2C(C)C`, the Activity in experiment [1] worked out at 66%; in experiment [2], 99.6%; in experiment [3], 100%; in experiment [4] it was 99.5%; in experiment [5] it was 65.1%; in experiment [6] it was 65.2%. For the same compound, in experiment [7], the inhibition entry is “Tde”.
